Measurements from patent publication US8710097B2, “Flavonoid dimers and methods of making and using such” (The Hong Kong Polytechnic University, priority 2006, dated 2014).

Experiments:
Ld39 amastigotes = test: Total antimony (SSG) accumulation assay using ICP-MS; assay type: cell-based, Leishmania donovani; details: 3 hr
Description: (§1) Amastigotes of L. donovani was prepared by spinning down 50 mL 4-day-old promastigotes (late log phase), and transferred to an axenic medium containing M199 Medium (Gibco), 0.5% Trypto casein soya, 3 mM L-cysteine, 15 mM D-glucose, 5 mM L-glutamine, 4 mM NaHCO3, 25 mM HEPES, 0.01 mM bathocuproine-disulfonic acid and 0.023 mM Hemin. Cells were then incubated at 37° C. for 24 hr. Amastigotes became ovoid in shape and were ready for drug accumulation assay.
(§2) The effect of flavonoid dimers on accumulation of antimony sodium stibogluconate (SSG) was investigated. Amastigotes are more susceptible to SSG and therefore accumulate more SSG as compared to promastigotes. Therefore, amastigotes were chosen for studying the Sb accumulation assay. […] After 3 hour incubation, the parasites were washed thrice with cold PBS, pH 7.4. The cell pellet was dissolved in 200 μL concentrated nitric acid for 24 hr at room temperature. The sample was diluted to 3 mL with distilled water, resulting in a final concentration of about 5 ppb of total Sb solution. It was then injected to ICP-MS (Perkin-Elmer) for quantitation. Antimony was measured at its m/z ratios of 121 and 123 with indium (In, m/z=115) as an internal standard. All chemicals used for the pretreatment of the samples were of at least analytical grade and the distilled water used directly as received without further purification.

LdAG83 amastigotes = test: as above; assay type: cell-based, Leishmania donovani; details: 9d 30 μM or 60 μM
Description: as §1, §2

Ld2001 amastigotes = test: as above; assay type: cell-based, Leishmania donovani; details: 3 hr
Description: as §1, §2

[1] = test system: pentamidine-resistant L. enriettii LePentR50 promastigotes; test: microbe, parasite or virus in culture
MDA435/LCC6 MDR cells = test: cells
[2] = MDA435/LCC6 MDR, 5 μM dimer, FIG. 5

O=c1cc(-c2ccc(OCCOCCOCCOCCOc3ccc(-c4cc(=O)c5c(O)cc(O)cc5o4)cc3)cc2)oc2cc(O)cc(O)c12 [Compound 9d, 1,13-Bis[4′-((5,7-dihydroxy)-4H-chromen-4-on-2-yl)phenyl]-1,4,7,10,13-pentaoxamidecane]
SSG accumulation, % of that of LdAG83 (Ld39 amastigotes; 30 μM 9d): 74%
SSG accumulation, % of that of LdAG83 (Ld39 amastigotes; 60 μM 9d): 90%
accumulation of SSG versus cells without treatment (LdAG83 amastigotes): did not significantly differ
SSG accumulation, % of that of LdAG83 (Ld2001 amastigotes; 30 μM 9d): 83%
SSG accumulation, % of that of LdAG83 (Ld2001 amastigotes; 60 μM 9d): 69%
cytotoxicity under accumulation conditions ([1]; LePentR50, 60 μM 9d, 3 hours, data not shown): did not result in any cytotoxicity
pentamidine sensitization ([1]; LePentR50, FIG. 18A): ~3.7 fold
toxicity of modulator alone ([1]; LePentR50, up to 6 μM): No toxicity
EC50 ([1]; read-out: EC50 (concentration resulting in 50% survival of LePentR50 at 60 μg/ml pentamidine), co-treatment with 60 μg/ml pentamidine, FIG. 15): ~940 nM
IC50 ([1]; read-out: IC50(μM) of synthetic flavonoid, LePentR50, cytotoxicity of compound alone, 72 hrs): > 200 µM
RF, daunorubicin (IC50 without modulator / IC50 with modulator) (MDA435/LCC6 MDR cells; LCC6 MDR, daunorubicin + 5 μM 9d): 7.6
RF, doxorubicin (IC50 without modulator / IC50 with modulator) (MDA435/LCC6 MDR cells; LCC6 MDR, doxorubicin + 5 μM 9d or VP): 9
RF, mitoxantrone (IC50 without modulator / IC50 with modulator) (MDA435/LCC6 MDR cells; LCC6 MDR, mitoxantrone + 5 μM 9d): 2.2
RF, taxol (IC50 without modulator / IC50 with modulator) (MDA435/LCC6 MDR cells; LCC6 MDR, taxol + 5 μM 9d or VP): 22
RF, vinblastine (IC50 without modulator / IC50 with modulator) (MDA435/LCC6 MDR cells; LCC6 MDR, vinblastine + 5 μM 9d or VP): 10
RF, vincristine (IC50 without modulator / IC50 with modulator) (MDA435/LCC6 MDR cells; LCC6 MDR, vincristine + 5 μM 9d): 41
reversal of resistance to vinblastine, taxol, doxorubicin, vincristine, daunorubicin (MDA435/LCC6 MDR cells; MDA435/LCC6 MDR, 5 μM 9d, FIG. 6A to 6E): to a level close to the parental
effect on mitoxantrone resistance (MDA435/LCC6 MDR cells; MDA435/LCC6 MDR, 5 μM 9d, FIG. 6F): No effect
IC60 of doxorubicin with modulator (MDA435/LCC6 MDR cells; [2]): 730 nM
reduction of IC60 of doxorubicin, RF (MDA435/LCC6 MDR cells; [2]): about 6 RF
concentration reaching the plateau of taxol reversing activity (MDA435/LCC6 MDR cells; MDA435/LCC6 MDR, FIG. 3B): 5 µM
